Results on 17 compounds are retold here after patent US12448394B2, “Heterocyclic pyrazole derivatives as type III receptor tyrosine kinase inhibitors” (DEVELOPMENT CENTER FOR BIOTECHNOLOGY, priority 2019, dated 2025).

For test [1], the system named is Molm-14 human acute myeloid leukemia cell with FLT3-ITD mutation. Briefly: Molm-14 cell proliferation assay (CellTiter 96). In kind it is cell-based. The following applies: Homo sapiens; Molm-14 cells, 72 hours treatment, CellTiter96; read-out: anti-proliferation activity Molm-14 (FLT3-ITD), IC50 ranking. In outline:
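Molm-14 (FLT3-ITD AML) cells in RPMI 1640 with 10% heat-inactivated FBS were seeded at 25000 cells/well, incubated overnight at 37° C, 5% CO2, then treated with increasing compound concentrations for 72 hours. Viability was read as absorbance at 490 nm after 2˜4 hours with CellTiter96 AQueous One reagent.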

Test [2] addresses T1, MET kinase (Homo sapiens, UniProt P08581).
T1 construct: purchased SignalChem
Briefly: MET kinase assay (AlphaScreen, counter screen). It is filed as biochemical. The following applies: read-out: Ranking of IC50 values, MET. In outline:
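Recombinant MET kinase (1 ng) phosphorylated biotinylated poly(Glu4:Tyr1) with […] ATP (so in the source) in MOPS pH 7.0 buffer with 10 mM MgCl2, 45 min at 30 °C, stopped with EDTA. Product read by AlphaScreen; IC50 from serial dilutions run in duplicate.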
(In general: In Alpha technology, singlet oxygen from a donor bead excites a nearby acceptor bead.)

Test [3] has as its target T2, FLT3-D835Y mutant kinase (Homo sapiens, UniProt P36888, D835Y).
T2 construct: purchased SignalChem
T2 sequence (P36888 27-993 D835Y): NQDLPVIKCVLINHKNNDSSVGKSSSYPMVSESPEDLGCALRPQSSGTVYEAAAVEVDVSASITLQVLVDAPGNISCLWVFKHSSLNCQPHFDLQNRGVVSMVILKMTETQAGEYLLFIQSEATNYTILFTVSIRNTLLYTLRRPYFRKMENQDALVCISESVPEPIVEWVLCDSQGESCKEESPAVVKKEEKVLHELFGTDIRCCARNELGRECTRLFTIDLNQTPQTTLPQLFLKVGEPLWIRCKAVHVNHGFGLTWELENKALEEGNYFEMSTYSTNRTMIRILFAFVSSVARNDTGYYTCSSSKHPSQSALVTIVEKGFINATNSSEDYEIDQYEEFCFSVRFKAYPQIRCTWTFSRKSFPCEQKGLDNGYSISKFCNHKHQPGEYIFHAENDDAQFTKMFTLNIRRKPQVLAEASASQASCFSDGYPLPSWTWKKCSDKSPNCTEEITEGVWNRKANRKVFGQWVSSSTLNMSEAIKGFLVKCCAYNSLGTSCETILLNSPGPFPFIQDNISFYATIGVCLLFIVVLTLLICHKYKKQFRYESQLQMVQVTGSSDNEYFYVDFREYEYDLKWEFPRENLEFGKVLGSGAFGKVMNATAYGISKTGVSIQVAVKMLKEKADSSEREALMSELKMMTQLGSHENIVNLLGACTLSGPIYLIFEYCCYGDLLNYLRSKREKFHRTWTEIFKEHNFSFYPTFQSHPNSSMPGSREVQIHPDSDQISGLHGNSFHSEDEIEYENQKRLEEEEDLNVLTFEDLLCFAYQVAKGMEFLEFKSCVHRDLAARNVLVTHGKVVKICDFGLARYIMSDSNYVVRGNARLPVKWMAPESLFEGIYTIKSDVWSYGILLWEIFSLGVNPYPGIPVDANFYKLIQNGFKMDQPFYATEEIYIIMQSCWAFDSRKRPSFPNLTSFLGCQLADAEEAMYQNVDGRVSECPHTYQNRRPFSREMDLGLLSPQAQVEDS
Description: FLT3-D835Y mutant kinase assay (AlphaScreen). It is filed as biochemical. To be noted: read-out: Ranking of IC50 values, FLT3-D835Y. The method in brief:
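Recombinant FLT3-D835Y (1 ng) phosphorylated biotin-poly(Glu4:Tyr1) at 10 μM ATP, pH 7.0 MOPS buffer with 10 mM MgCl2, for 30 min at 30 °C, stopped with EDTA. Product was read by AlphaScreen. IC50 came from serial dilutions run in duplicate.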

T1 sequence (P08581 25-1390): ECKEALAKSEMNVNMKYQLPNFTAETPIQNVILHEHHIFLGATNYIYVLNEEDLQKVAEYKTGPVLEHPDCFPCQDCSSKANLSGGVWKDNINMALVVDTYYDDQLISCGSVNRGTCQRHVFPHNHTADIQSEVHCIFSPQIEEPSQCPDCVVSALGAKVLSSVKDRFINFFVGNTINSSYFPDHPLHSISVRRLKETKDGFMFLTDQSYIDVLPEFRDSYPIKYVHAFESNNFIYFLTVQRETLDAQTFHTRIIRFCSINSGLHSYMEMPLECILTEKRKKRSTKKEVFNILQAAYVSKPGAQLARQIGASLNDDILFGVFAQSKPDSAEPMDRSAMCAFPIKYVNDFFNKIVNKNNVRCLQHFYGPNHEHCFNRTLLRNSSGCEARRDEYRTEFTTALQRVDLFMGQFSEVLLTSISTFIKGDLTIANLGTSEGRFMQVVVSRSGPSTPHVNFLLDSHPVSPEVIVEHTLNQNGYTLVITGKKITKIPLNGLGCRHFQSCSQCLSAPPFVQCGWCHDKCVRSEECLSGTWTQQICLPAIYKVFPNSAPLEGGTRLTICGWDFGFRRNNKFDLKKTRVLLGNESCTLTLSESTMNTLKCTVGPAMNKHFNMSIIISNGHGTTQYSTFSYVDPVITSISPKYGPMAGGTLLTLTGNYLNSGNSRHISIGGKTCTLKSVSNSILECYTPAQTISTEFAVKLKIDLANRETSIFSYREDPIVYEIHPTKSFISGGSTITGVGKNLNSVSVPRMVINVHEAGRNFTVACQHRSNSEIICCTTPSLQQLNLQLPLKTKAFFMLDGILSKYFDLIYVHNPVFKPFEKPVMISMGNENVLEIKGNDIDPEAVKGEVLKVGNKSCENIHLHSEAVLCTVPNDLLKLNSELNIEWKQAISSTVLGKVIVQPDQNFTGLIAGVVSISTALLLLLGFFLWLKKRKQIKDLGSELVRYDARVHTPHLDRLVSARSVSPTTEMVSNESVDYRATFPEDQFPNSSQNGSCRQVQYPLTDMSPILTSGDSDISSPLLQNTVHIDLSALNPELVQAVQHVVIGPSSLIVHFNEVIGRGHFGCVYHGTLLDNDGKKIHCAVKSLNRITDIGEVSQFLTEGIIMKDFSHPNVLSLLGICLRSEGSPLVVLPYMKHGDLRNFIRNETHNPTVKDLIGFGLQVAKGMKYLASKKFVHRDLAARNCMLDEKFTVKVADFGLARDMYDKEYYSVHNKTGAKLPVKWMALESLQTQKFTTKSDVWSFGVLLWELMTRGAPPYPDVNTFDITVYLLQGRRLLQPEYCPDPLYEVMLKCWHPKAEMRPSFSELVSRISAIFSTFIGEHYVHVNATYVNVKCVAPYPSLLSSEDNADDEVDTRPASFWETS

`Cn1ncc2ccc(-c3n[nH]c4c3Cc3sc(-c5ccc(C(=O)N6CCCCC6)cc5)cc3-4)cc21` [Compound 34, (4-(3-(1-methyl-1H-indazol-6-yl)-1,4-dihydro-thieno[2′,3′:4,5]cyclopenta [1,2-c]pyrazol-6-yl)phenyl)(piperidin-1-yl) methanone]: the IC50 is 30 to 100 nM in test [1], above 1000 nM in test [2] and 1 to 10 nM in test [3].
On the same counts, the results for `CC(C)Cn1ncc2ccc(-c3n[nH]c4c3Cc3sc(-c5ccc(CN6CCOCC6)cc5)cc3-4)cc21` [Compound 35, 4-(4-(3-(1-isobutyl-1H-indazol-6-yl)-1,4-dihydro-thieno[2′,3′:4,5]cyclopenta [1,2-c]pyrazol-6-yl)benzyl)morpholine] are 100 to 300 nM, above 1000 nM and 1 to 10 nM.
On the same counts, the results for `Cn1ncc2ccc(-c3n[nH]c4c3Cc3sc(-c5cccc(C(=O)N6CCOCC6)c5)cc3-4)cc21` [Compound 37, (3-(3-(1-methyl-1H-indazol-6-yl)-1,4-dihydro-thieno[2′,3′:4,5]cyclopenta [1,2-c]pyrazol-6-yl)phenyl)(morpholino) methanone] are 30 to 100 nM, above 1000 nM and 1 to 10 nM.
As to `Cn1ncc2ccc(-c3n[nH]c4c3Cc3sc(-c5ccc(C(=O)N6CCCC6)cc5)cc3-4)cc21` [Compound 38, (4-(3-(1-methyl-1H-indazol-6-yl)-1,4-dihydro-thieno[2′,3′:4,5]cyclopenta [1,2-c]pyrazol-6-yl)phenyl)(pyrrolidin-1-yl) methanone], the IC50 is 30 to 100 nM in test [1], above 1000 nM in test [2] and 1 to 10 nM in test [3].
Taken in the same sequence, the figures for `Cn1ncc2ccc(-c3n[nH]c4c3Cc3sc(-c5ccc(CN6CCSCC6)cc5)cc3-4)cc21` [Compound 39, 3-(1-methyl-1H-indazol-6-yl)-6-(4-(thiomorpho-linomethyl)phenyl)-1,4-dihydrothieno[2′,3′:4,5] cyclopenta[1,2-c]pyrazole] were 30 to 100 nM, above 1000 nM and 1 to 10 nM.
Taken in the same sequence, the figures for `Cn1ncc2ccc(-c3n[nH]c4c3Cc3sc(-c5cnc(C(=O)N6CCOCC6)nc5)cc3-4)cc21` [Compound 41, (5-(3-(1-methyl-1H-indazol-6-yl)-1,4-dihydrothieno[2′,3′:4,5]cyclopenta[1,2-c]pyrazol-6-yl)pyrimidin-2-yl) (morpholino)methanone] were below 30 nM, above 1000 nM and 1 to 10 nM.
On to `CC(C)n1ncc2ccc(-c3n[nH]c4c3Cc3sc(-c5ccc(CN6CCOCC6)cc5)cc3-4)cc21` [Compound 42, 4-(4-(3-(1-isopropyl-1H-indazol-6-yl)-1,4-dihydro-thieno[2′,3′:4,5]cyclopenta [1,2-c]pyrazol-6-yl)benzyl)morpholine], for which the IC50 is 100 to 300 nM in test [1], above 1000 nM in test [2] and 1 to 10 nM in test [3].
Take `COc1cc(-c2cc3c(s2)Cc2c(-c4ccc5cnn(C)c5c4)n[nH]c2-3)ccc1C(=O)N1CCOCC1` [Compound 43, (2-methoxy-4-(3-(1-methyl-1H-indazol-6-yl)-1,4-dihydrothieno [2′,3′:4,5]cyclopenta [1,2-c]pyrazol-6-yl)phenyl)(morpholino) methanone]: the IC50 in test [1] was 30 to 100 nM; in test [2] it was above 1000 nM; in test [3], 1 to 10 nM.
On the same counts, the results for `Cn1ncc2ccc(-c3n[nH]c4c3Cc3sc(-c5ccc(C(=O)N6CCOCC6)c(F)c5)cc3-4)cc21` [Compound 44, (2-fluoro-4-(3-(1-methyl-1H-indazol-6-yl)-1,4-dihydrothieno[2′,3′:4,5]cyclopenta[1,2-c]pyrazol-6-yl)phenyl)(morpholino) methanone] are below 30 nM, above 1000 nM and below 1 nM.
On the same counts, the results for `Cn1ncc2ccc(-c3n[nH]c4c3Cc3sc(-c5cnc(N)nc5)cc3-4)cc21` [Compound 45, 5-(3-(1-methyl-1H-indazol-6-yl)-1,4-dihydrothieno [2′,3′:4,5]cyclopenta[l,2-c]pyrazol-6-yl)pyrimidin-2-amine] are below 30 nM, above 1000 nM and below 1 nM.
On the same counts, the results for `Cn1cc(-c2cc3c(s2)Cc2c(-c4ccc5cnn(C)c5c4)n[nH]c2-3)cc1C(=O)N1CCOCC1` [Compound 46, (1-methyl-4-(3-(1-methyl-1H-indazol-6-yl)-1,4-dihydrothieno[2′,3′:4,5]cyclopenta[1,2-c]pyrazol-6-yl)-1H-pyrrol-2-yl) (morpholino)methanone] are below 30 nM, above 1000 nM and below 1 nM.
With `Cn1ncc2ccc(-c3n[nH]c4c3Cc3sc(-c5ccc(S(=O)(=O)N6CCOCC6)cc5)cc3-4)cc21` [Compound 47, 4-((4-(3-(1-methyl-1H-indazol-6-yl)-1,4-dihydro-thieno[2′,3′:4,5]cyclopenta [1,2-c]pyrazol-6-yl)phenyl)sulfonyl) morpholine], the IC50 was below 30 nM in test [1], above 1000 nM in test [2] and below 1 nM in test [3].
Taken in the same sequence, the figures for `Cn1ncc2ccc(-c3n[nH]c4c3Cc3sc(-c5csc(C(=O)N6CCOCC6)c5)cc3-4)cc21` [Compound 48, (4-(3-(1-methyl-1H-indazol-6-yl)-1,4-dihydro-thieno[2′,3′:4,5]cyclopenta [1,2-c]pyrazol-6-yl)thiophen-2-yl) (morpholino)methanone] were below 30 nM, above 1000 nM and below 1 nM.
Taken in the same sequence, the figures for `CN(C)C(=O)c1ccc(-c2cc3c(s2)Cc2c(-c4ccc5cnn(C)c5c4)n[nH]c2-3)cc1` [Compound 49, N,N-dimethyl-4-(3-(1-methyl-1H-indazol-6-yl)-1,4-dihydrothieno [2′,3′:4,5]cyclopenta [1,2-c]pyrazol-6-yl) benzamide] were below 30 nM, above 1000 nM and below 1 nM.
In the case of `CN(C)S(=O)(=O)c1ccc(-c2cc3c(s2)Cc2c(-c4ccc5cnn(C)c5c4)n[nH]c2-3)cc1` [Compound 50, N,N-dimethyl-4-(3-(1-methyl-1H-indazol-6-yl)-1,4-dihydrothieno [2′,3′:4,5]cyclopenta [1,2-c]pyrazol-6-yl) benzenesulfonamide], the IC50 in test [1] is 30 to 100 nM; in test [2], above 1000 nM; in test [3] it was below 1 nM.
Regarding `Cn1ncc2ccc(-c3n[nH]c4c3Cc3sc(-c5ccc(CN6CCOCC6)s5)cc3-4)cc21` [Compound 51, 4-((5-(3-(1-methyl-1H-indazol-6-yl)-1,4-dihydro-thieno[2′,3′:4,5]cyclopenta [1,2-c]pyrazol-6-yl)thiophen-2-yl)methyl) morpholine], the figures for the IC50 in test [1], in test [2] and in test [3] were 30 to 100 nM, above 1000 nM and below 1 nM, respectively.
As for `Cn1ncc2ccc(-c3n[nH]c4c3Cc3sc(-c5csc(CN6CCOCC6)c5)cc3-4)cc21` [Compound 52, 4-((4-(3-(1-methyl-1H-indazol-6-yl)-1,4-dihydro-thieno[2′,3′:4,5]cyclopenta [1,2-c]pyrazol-6-yl)thiophen-2-yl)methyl) morpholine], the IC50 in test [1] is 30 to 100 nM; in test [2] it was above 1000 nM; in test [3] it was below 1 nM.
